Consider three compounds from patent publication US20120149661A1, “TETRA-SUBSTITUTED HETEROARYL COMPOUNDS AND THEIR USE AS MDM2 AND/OR MDM4 MODULATORS” (NOVARTIS AG, priority 2009, published 2012).

As usually defined, the melting point is the temperature of the solid-liquid transition.

The compound `CCNC(=O)c1nc(-c2ccc(C)c(C)c2)n(-c2cc(Cl)ccc2C)c1-c1cccc(Cl)c1` [Example 1, 1-(5-Chloro-2-methyl-phenyl)-5-(3-chloro-phenyl)-2-(3,4-dimethyl-phenyl)-1H-imidazole-4-carboxylic acid ethylamide] showed a melting point of 141 to 143 °C. Next, `Cc1ccc(-c2nc(C#N)c(-c3cccc(Cl)c3)n2-c2cc(Cl)ccc2C)cc1C` [Example 3, 1-(5-chloro-2-methyl-phenyl)-5-(3-chloro-phenyl)-2-(3,4-dimethyl-phenyl)-1H-imidazole-4-nitrile]: 218 °C.

In the case of `O=Cc1cc(-c2nc(C(=O)O)c(-c3ccc(F)c(Cl)c3)n2-c2cccc(Cl)c2F)cs1` [Example 293, 5-(3-Chloro-4-fluoro-phenyl)-1-(3-chloro-2-fluoro-phenyl)-2-(5-formyl-thiophen-3-yl)-1H-imidazole-4-carboxylic acid], the melting point lay in the range of 157 to 160 °C.
